Where two headings read alike, the source gives them in different places. Each block holds one compound with its values, some of them ahead of it.
Tests used:
MCR-4 = molecular target: T1, MCR-4 (Homo sapiens, UniProt P32245); test: Melanocortin receptor binding assay, competition with 125I-HP 467, HEK 293 cells expressing hMCR-4; conditions: for IC50: read-out: MC-4 IC50
T1 construct: expressed in transfected cells; host or cells: HEK 293
Procedure, shortened: (§1)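 Intact-cell competition binding, 2.5 hr at 37 °C, in PBS/10% calf serum/1 mM CaCl2; hMCR-4 cells at 4×10^3 per tube, hMCR-1 cells at 2×10^4 per tube. Filtration on BSA/CaCl2-soaked GF/B, cold 50 mM Tris pH 7.4 washes, scintillation count.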

MCR-1 = molecular target: T2, MCR-1 (Homo sapiens, UniProt Q01726); test: Melanocortin receptor binding assay, competition with 125I-HP 467, HEK 293 cells expressing hMCR-1; conditions: for IC50: read-out: MC-1 IC50
T2 construct: expressed in transfected cells; host or cells: HEK 293
Procedure, shortened: as §1

[1] = TRG 2414 library, inhibition of binding of 125I-HP 467, HEK 293 cells expressing MCR-4
[2] = TRG 2414 library, inhibition of binding of 125I-HP 467, HEK 293 cells expressing MCR-1
[3] = inhibition of binding of 125I-HP 467, HEK 293 cells expressing MCR-4, TRG 2414 library
[4] = inhibition of binding of 125I-HP 467, HEK 293 cells expressing MCR-1, TRG 2414 library
[5] = TRG 2408 and TRG 2409 libraries, inhibition of 125I-HP 467 binding
[6] = TRG 2406 and TRG 2407 libraries, inhibition of binding of 125I-HP 467
[7] = inhibition of binding of 125I-HP 467, HEK 293 cells expressing MCR-4
[8] = inhibition of binding of 125I-HP 467, HEK 293 cells expressing MCR-1

T2 sequence (Q01726 whole entry): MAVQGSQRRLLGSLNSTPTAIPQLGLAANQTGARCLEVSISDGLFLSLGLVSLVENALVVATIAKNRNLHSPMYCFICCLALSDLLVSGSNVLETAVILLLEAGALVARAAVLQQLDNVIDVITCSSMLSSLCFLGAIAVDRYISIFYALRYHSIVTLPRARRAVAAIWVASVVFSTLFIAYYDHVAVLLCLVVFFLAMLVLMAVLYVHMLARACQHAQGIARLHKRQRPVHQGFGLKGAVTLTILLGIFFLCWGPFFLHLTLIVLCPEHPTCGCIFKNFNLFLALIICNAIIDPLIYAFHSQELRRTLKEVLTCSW
T1 sequence (P32245 whole entry): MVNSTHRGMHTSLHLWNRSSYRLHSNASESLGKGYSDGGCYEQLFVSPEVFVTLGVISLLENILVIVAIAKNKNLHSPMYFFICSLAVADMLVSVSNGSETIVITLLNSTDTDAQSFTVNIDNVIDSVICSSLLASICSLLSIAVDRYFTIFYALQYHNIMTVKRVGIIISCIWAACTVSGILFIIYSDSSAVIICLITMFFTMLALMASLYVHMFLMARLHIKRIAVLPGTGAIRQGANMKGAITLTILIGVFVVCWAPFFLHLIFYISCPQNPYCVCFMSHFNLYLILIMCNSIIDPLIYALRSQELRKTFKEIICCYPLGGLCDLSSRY

IC50 (MCR-4; [3]): 37.5 µM
IC50 (MCR-1; [4]): 25.5 µM
Compound: COc1ccc(CNCC2c3ccccc3CN(CCCCC(CN)NCC(C)c3ccc(CC(C)C)cc3)C2c2ccc(Cl)cc2Cl)cc1 (stereo not shown) [TRG 2414-24]

IC50 (MCR-4; [3]): 46.2 µM
MC-1 IC50 (MCR-1; [4]): no fit
Compound: COc1ccc(CNCC2c3ccccc3CN(CCCCC(CN)NCC(C)c3ccc(CC(C)C)cc3)C2c2cccc(Oc3ccccc3)c2)cc1 (stereo not shown) [TRG 2414-104]

IC50 (MCR-4; [3]): 5.26 µM
IC50 (MCR-1; [4]): 1.21 µM
Compound: COc1cccc(CNCC2c3ccccc3CN(CCCCC(N)CN)C2c2ccc(Oc3ccccc3)cc2)c1 (stereo not shown) [TRG 2414-137]

IC50 (MCR-4; [3]): 5.34 µM
IC50 (MCR-1; [4]): 14.5 µM
Compound: COc1ccc(CNCC2c3ccccc3CN(CCCCC(CN)NCc3ccccc3)C2c2cc(C(F)(F)F)cc(C(F)(F)F)c2)cc1 (stereo not shown) [TRG 2414-63]

IC50 (MCR-4; [3]): 8.21 µM
IC50 (MCR-1; [4]): 6.55 µM
Compound: COc1ccc(CCNCC2c3ccccc3CN(CCCCC(CN)NCc3ccccc3)C2c2cccc(Oc3ccccc3)c2)cc1 (stereo not shown) [TRG 2414-107]

MC-4 IC50 (MCR-4; [3]): no fit
IC50 (MCR-1; [4]): 25 µM
Compound: CCOc1ccccc1CNCC1c2ccccc2CN(CCCCC(CN)NCC(C)c2ccc(CC(C)C)cc2)C1c1ccc(Oc2ccccc2)cc1 (mixture of isomers) [TRG 2414-128]

MC-4 IC50 (MCR-4; [3]): no fit
MC-1 IC50 (MCR-1; [4]): no fit
Compound: CC(C)Cc1ccc(C(C)CNC(CN)CCCCN2Cc3ccccc3C(CNCc3ccccc3)C2c2ccc(Oc3ccccc3)cc2)cc1 (stereo not shown) [TRG 2414-152]

IC50 (MCR-4; [3]): 55.5 µM
MC-1 IC50 (MCR-1; [4]): no fit
Compound: NCC(CCCCN1Cc2ccccc2C(CNCc2ccccc2C(F)(F)F)C1c1ccc(Oc2ccccc2)cc1)NCCc1ccccc1 (stereo not shown) [TRG 2414-122]

IC50 (MCR-4; [3]): 18.7 µM
IC50 (MCR-1; [4]): 6.43 µM
Compound: CCOc1ccccc1CNCC1c2ccccc2CN(CCCCC(CN)NCCc2ccccc2)C1c1ccc(Oc2ccccc2)cc1 (stereo not shown) [TRG 2414-126]

IC50 (MCR-4; [3]): 10 µM
IC50 (MCR-1; [4]): 11.1 µM
Compound: NCC(CCCCN1Cc2ccccc2C(CNCc2ccccc2)C1c1cccc(Oc2ccccc2)c1)NCCc1ccccc1 (stereo not shown) [TRG 2414-110]

IC50 (MCR-4; [3]): 3.96 µM
IC50 (MCR-1; [4]): 1.92 µM
Compound: NCC(CCCCN1Cc2ccccc2C(CNC2CCCCC2)C1c1ccc(Cl)cc1Cl)NCCc1ccccc1 (stereo not shown) [TRG 2414-38]

IC50 (MCR-4; [3]): 4.25 µM
IC50 (MCR-1; [4]): 6.54 µM
Compound: CCOc1ccccc1CNCC1c2ccccc2CN(CCCCC(CN)NCCc2ccccc2)C1c1cc(C(F)(F)F)cc(C(F)(F)F)c1 (stereo not shown) [TRG 2414-46]

IC50 (MCR-4; [3]): 5.58 µM
IC50 (MCR-1; [4]): 0.146 µM
Compound: COc1ccccc1CCNCC1c2ccccc2CN(CCCCC(N)CN)C1c1ccc(Oc2ccccc2)cc1 (mixture of isomers) [TRG 2414-129]

More lines, now with the values behind:

Compound: COc1ccc(CNCC2c3ccccc3CN(CCCCC(CN)NCCc3ccccc3)C2c2ccccc2Br)cc1 (stereo not shown) [Cmpd 222]
IC50 (MCR-4; [1]): 4.78 µM
IC50 (MCR-1; [2]): 5.05 µM

Compound: NCCNC(CN)CCCN1Cc2ccccc2C(CNC2CCCCC2)C1c1ccc(Cl)cc1Cl (stereo not shown) [TRG 2408-73]
IC50 (MCR-4; [5]): 4.05 µM
IC50 (MCR-1; [5]): 1.08 µM

Compound: CCOc1ccccc1CNCC1c2ccccc2CN(CCCCC(CN)NC)C1c1ccc(Cl)cc1Cl (stereo not shown) [TRG 2407-15]
IC50 (MCR-4; [6]): 0.78 µM
IC50 (MCR-1; [6]): 1.2 µM

Compound: CCNc1ccc(C2C(CNCCc3ccccc3)c3ccccc3CN2CCCC(CN)NCCC2CCCCC2)cc1 (stereo not shown) [TRG 2411-162]
IC50 (MCR-4; [7]): 1.22 µM
IC50 (MCR-1; [8]): 0.11 µM

Compound: CCNc1ccc(C2C(CNCCc3ccccc3)c3ccccc3CN2CCCC(CN)NCCCCNc2ccccc2)cc1 (stereo not shown) [TRG 2419-1]
IC50 (MCR-4; [7]): 3.01 µM
IC50 (MCR-1; [8]): 0.11 µM

Compound: CCOc1ccc(CCNCC2c3ccccc3CN(CCCCC(CN)NCc3ccc(Br)cc3)C2c2cc(C(F)(F)F)cc(C(F)(F)F)c2)cc1 (stereo not shown) [TRG 2421-23]
IC50 (MCR-4; [7]): 8.22 µM
IC50 (MCR-1; [8]): 7.44 µM

Compound: CCCNc1ccc(C2C(CNC3CCCCC3)c3ccccc3CN2CCCCC(CN)NC)cc1 (stereo not shown) [TRG 2409-20]
IC50 (MCR-4; competition with 125I-HP 467, HEK 293 cells expressing MCR-4): 19.8 µM
IC50 (MCR-1; competition with 125I-HP 467, HEK 293 cells expressing MCR-1): 0.88 µM

Compound: CNC(CN)CCCCN1Cc2ccccc2C(CN(C)C2CCCCC2)C1c1ccc(Cl)cc1Cl (stereo not shown) [TRG 2407-30]
IC50 (MCR-4; [6]): 2.1 µM
IC50 (MCR-1; [6]): 3.15 µM

Compound: CNC(CN)CCCCN1Cc2ccccc2C(CNC2CCCC2)C1c1ccc(Cl)cc1Cl (stereo not shown) [TRG 2407-27]
IC50 (MCR-4; [6]): 0.53 µM
IC50 (MCR-1; [6]): 0.57 µM

Compound: COc1cccc(CNCC2c3ccccc3CN(CCCCC(CN)NCc3ccccc3)C2c2ccccc2Br)c1 (stereo not shown) [Cmpd 219]
IC50 (MCR-4; [1]): 9.59 µM
IC50 (MCR-1; [2]): 10.3 µM

Compound: COc1ccccc1CCNCC1c2ccccc2CN(CCCCC(CN)NCc2ccccc2)C1c1ccccc1Br (stereo not shown) [Cmpd 211]
IC50 (MCR-4; [1]): 4.21 µM
IC50 (MCR-1; [2]): 3.56 µM

Compound: CCCOc1ccc(C2C(CNC3CCCCC3)c3ccccc3CN2CCCCC(N)CN)cc1 (stereo not shown) [Cmpd 197]
IC50 (MCR-4; [1]): 12.6 µM
IC50 (MCR-1; [2]): 0.419 µM

Compound: NCCNC(CN)CCCCN1Cc2ccccc2C(CNC2CCCCC2)C1c1ccc(-c2ccccc2)cc1 (stereo not shown) [TRG 2408-53]
IC50 (MCR-4; [5]): 14.8 µM
IC50 (MCR-1; [5]): 1 µM

Source: patent US6608082B1, “Treatment of erectile dysfunction using isoquinoline compound melanocortin receptor ligands” (Lion Bioscience AG, priority 1998, dated 2003)
